Our source for the IC50 values is article PMC5374441 (Scientific Reports, 2017).

The assay addresses T1, Q55K Ls-AChBP mutant (Lymnaea stagnalis, UniProt P58154, Q74K).
T1 construct: made in house; Top10 E. coli is named only for plasmid propagation
Put plainly: biochemical. The following applies: SEM. The assay is classed as binding.

Broadly, the IC50 is the concentration that inhibits the measured activity by half. A low value points to inhibition by little substance.

Molecules are shown by their SMILES. Bridge positions count the residues as written; N and C are the ends. Peptide text beside a SMILES is read from it.

In turn, `CC[C@H](C)[C@@H]1NC(=O)[C@H](CC(N)=O)NC(=O)[C@@H]2CCCN2C(=O)[C@H](CC(N)=O)NC(=O)[C@H](CC(N)=O)NC(=O)[C@H](C(C)C)NC(=O)[C@H](CCCNC(=N)N)NC(=O)[C@@H]2CSSC[C@H](NC(=O)CNC(=O)[C@@H](N)CO)C(=O)N[C@@H](CSSC[C@@H](C(N)=O)NC1=O)C(=O)N[C@@H](CO)C(=O)N[C@@H](CC(N)=O)C(=O)N1CCC[C@H]1C(=O)N[C@@H](C)C(=O)N2` [LsIA] (H-SGCCSNPACRVNNPNIC-NH2; disulfide 3-9, 4-17) registered an IC50 of 17.4 ± 10.7 µM.
